Data published in patent US20230011869A1 (Hoffmann-La Roche Inc., priority 2018, published 2023).
Where a name gives a salt, the structure may show the parent alone. Read-outs that look alike come from different tables or passages of the source.

System: Acinetobacter baumannii ATCC17978
Assay: Antimicrobial susceptibility testing: 90% growth inhibitory concentration (IC90) determination, Iso-Sensitest broth
Type: cell-based
In short: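 A. baumannii ATCC17978 grown in Iso-Sensitest broth across 10 compound concentrations at 35±2 °C.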

[1] = 90% growth inhibitory concentration, Acinetobacter baumannii ATCC17978, Iso-Sensitest broth, OD 600 nm over 16 h, read-out: ATCC17978 IC90
[2] = Acinetobacter baumannii, ATCC17978, 16 h, read-out: ATCC17978 IC90, 90% growth inhibitory concentration, Acinetobacter baumannii ATCC17978, Iso-Sensitest broth, OD 600 nm over 16 h

| IC90 [1] | Structure (SMILES) | IC90 [2] |
| --- | --- | --- |
| 0.18 µM | COc1ccc(-c2cnc3c(Nc4ccc(C(=O)N5CCN(C(=O)N6CCO[C@@H](CN)C6)CC5)c(C)c4)nccn23)c(Cl)c1F [Example 484, [4-[(2S)-2-(aminomethyl)morpholine-4-carbonyl]piperazin-1-yl]-[4-[[3-(2-chloro-3-fluoro-4-methoxyphenyl)imidazo[1,2-a]pyrazin-8-yl]amino]-2-methylphenyl]methanone; for-mic acid] | – |
| 0.38 µM | COc1ccc(-c2cnc3c(Nc4ccc(C(=O)N5CCC(CNCCC#N)CC5)c(C)c4)nccn23)cc1 [Example 399, 3-[[1-[4-[[3-(4-methoxyphenyl)imidazo[1,2-a]pyrazin-8-yl]amino]-2-methylbenzoyl]piperidin-4-yl]methylamino]propanenitrile] | – |
| 0.13 µM | Cc1cc(Nc2nccn3c(-c4ccc(OC(F)F)cc4)cnc23)ccc1C(=O)N1CCC(C(=O)N2CCNCC2CO)CC1 (stereo not drawn) [Example 181, [4-[[3-[4-(difluoromethoxy)phenyl]imidazo[1,2-a]pyrazin-8-yl]amino]-2-methyl-phenyl]-[4-[2-(hydroxymethyl)piperazine-1-carbonyl]-1-piperidyl]methanone hydrochloride] | – |
| 0.63 µM | Cc1cc(Nc2nccn3c(-c4ccc(OC(F)F)cc4)cnc23)ccc1C(=O)N1CC[C@@H](C(=O)N2CCNCC2)[C@@H](O)C1 (racemic) [Example 530, [4-[[3-[4-(difluoromethoxy)phenyl]imi-dazo[1,2-a]pyrazin-8-yl]amino]-2-methylphenyl]-[rac-(3R,4R)-3-hydroxy-4-(piperazine-1-carbonyl)piperidin-1-yl]methanone; 2,2,2-trifluoroacetic acid] | – |
| 1.6 µM | COc1ccc(-c2cnc3c(Nc4ccc(C(=O)N5CCC(C(=O)NC6(C(=O)O)CC6)CC5)c(C)c4)nccn23)cc1F [Example 433, 1-[[1-[4-[[3-(3-fluoro-4-methoxyphenyl)imidazo[1,2-a]pyrazin-8-yl]amino]-2-methylbenzoyl]piperidine-4-carbonyl]amino]cyclopropane-1-carboxylic acid] | – |
| 0.082 µM | Cc1cc(Nc2nccn3c(-c4ccc(O[C@@H](C)C#N)c(F)c4F)cnc23)ccc1C(=O)N1CCN(C(=O)[C@@H]2C[C@](C)(O)CN2)CC1 [Example 459, (2S)-2-[2,3-difluoro-4-[8-[4-[4-[(2S,4S)-4-hydroxy-4-methylpyrrolidine-2-carbonyl]piperazine-1-carbonyl]-3-methylanilino]imidazo[1,2-a]pyrazin-3-yl]phenoxy]propanenitrile; for-mic acid] | – |
| 0.15 µM | COc1ccc(-c2cnc3c(Nc4ccc(C(=O)N5CCN(C(=O)NC[C@@H](C)N)CC5)c(C)c4)nccn23)c(Cl)c1F [Example 155, N-[(2R)-2-aminopropyl]-4-[4-[[3-(2-chloro-3-fluoro-4-methoxy-phenyl)imidazo[1,2-a]pyrazin-8-yl]amino]-2-methyl-benzoyl]piperazine-1-carboxamide formate] | – |

The next lines start with the molecule.

| Structure (SMILES) | IC90 [1] | IC90 [2] |
| --- | --- | --- |
| Cc1cc(Nc2nccn3c(-c4ccc(OC(F)F)cc4)cnc23)ccc1C(=O)N1CCN(C(=O)[C@@H](N)CC(N)=O)CC1 [Example 528, (3S)-3-amino-4-[4-[4-[[3-[4-(difluoromethoxy)phenyl]imi-dazo[1,2-a]pyrazin-8-yl]amino]-2-methylbenzoyl]piperazin-1-yl]-4-oxobutanamide; hydrochloride] | – | 0.61 µM |
| Cc1cc(Nc2nccn3c(-c4ccc(OC(F)F)cc4)cnc23)ccc1C(=O)N1CCC(N(C)CCN(C)C)CC1 [Example 301, [4-[[3-[4-(difluoromethoxy)phenyl]imi-dazo[1,2-a]pyrazin-8-yl]amino]-2-methylphenyl]-[4-[2-(dimethylamino)ethyl-methylamino]piperidin-1-yl]methanone] | – | 0.72 µM |
| COc1ccc(-c2cnc3c(Nc4ccc(C(=O)N5CCN(c6nccn6C)CC5)c(C)c4)nccn23)cc1F [Example 41, (4-((3-(3-fluoro-4-methoxyphenyl)imidazo[1,2-a]pyrazin-8-yl)amino)-2-methylphenyl)(4-(1-methyl-1H-imidazol-2-yl)piperazin-1-yl)methanone] | 0.11 µM | – |
| CCC(N)C(=O)N1CCN(C(=O)c2ccc(Nc3nccn4c(-c5ccc(OC(F)F)cc5)cnc34)cc2C)CC1 (stereo not drawn) [Example 344, 2-amino-1-[4-[4-[[3-[4-(difluoromethoxy)phenyl]imi-dazo[1,2-a]pyrazin-8-yl]amino]-2-methylbenzoyl]piperazin-1-yl]butan-1-one; hydrochloride] | – | 0.56 µM |
| Cc1cc(Nc2nccn3c(-c4ccc(OC(F)F)cc4)cnc23)ccc1C(=O)N1CCC(C(=O)N2CC3(C2)CN(C2CC2)C3)CC1 [Example 44, (4-(6-cyclopropyl-2,6-diazaspiro[3.3]heptane-2-carbonyl)piperidin-1-yl)(4-((3-(4-(difluoromethoxy)phenyl)imidazo[1,2-a]pyrazin-8-yl)amino)-2-methylphenyl)methanone] | 0.28 µM | – |
| Cc1cc(Nc2nccn3c(-c4ccc(OC(F)F)cc4)cnc23)ccc1C(=O)N1CCN(C(N)=O)CC1 [Example 74, 4-(4-((3-(4-(difluoromethoxy)phenyl)imidazo[1,2-a]pyrazin-8-yl)amino)-2-methylbenzoyl)piperazine-1-carboxamide] | 0.071 µM | – |
| COc1ccc(-c2cnc3c(Nc4ccc(C(=O)N5CCC(C(=O)N6CCNC(CO)C6)CC5)c(C)c4)nccn23)cc1F (stereo not drawn) [Example 53, (1-(4-((3-(3-fluoro-4-methoxyphenyl)imidazo[1,2-a]pyrazin-8-yl)amino)-2-methylbenzoyl)piperidin-4-yl)(3-(hydroxymethyl)piperazin-1-yl)methanone 2,2,2-trifluoroacetate] | – | 0.27 µM |
| Cc1cc(Nc2nccn3c(-c4ccc(OC(F)F)cc4)cnc23)ccc1C(=O)N1CCN(C(=O)[C@H]2NCC[C@H]2O)CC1 [Example 512, [4-[[3-[4-(difluoromethoxy)phenyl]imi-dazo[1,2-a]pyrazin-8-yl]amino]-2-methylphenyl]-[4-[(2S,3R)-3-hydroxypyrrolidine-2-carbonyl]piperazin-1-yl]methanone; hydrochloride] | – | 0.57 µM |
| Cc1cc(Nc2nccn3c(-c4ccc(OC(F)F)cc4)cnc23)ccc1C(=O)N1CCC(c2nncn2C)CC1 [Example 13, (4-((3-(4-(difluoromethoxy)phenyl)imidazo[1,2-a]pyrazin-8-yl)amino)-2-methylphenyl)(4-(4-methyl-4H-1,2,4-triazol-3-yl)piperidin-1-yl)methanone] | 0.13 µM | – |
| Cc1cc(Nc2nccn3c(-c4ccc(OC(F)F)cc4)cnc23)ccc1C(=O)N1CCN(C(=O)C2C3CCC2CNC3)CC1 (stereo not drawn) [Example 488, [4-(3-azabicyclo[3.2.1]octane-8-carbonyl)piperazin-1-yl]-[4-[[3-[4-(difluoromethoxy)phenyl]imi-dazo[1,2-a]pyrazin-8-yl]amino]-2-methylphenyl]methanone; hy-drochloride] | – | 0.24 µM |
| CNCCNC(=O)[C@@H]1CCN(C(=O)c2ccc(Nc3nccn4c(-c5ccc(OC)c(F)c5)cnc34)cc2C)C[C@@H]1O (racemic) [Example 439, rac-(3R,4R)-1-[4-[[3-(3-fluoro-4-methoxyphenyl)imidazo[1,2-a]pyrazin-8-yl]amino]-2-methylbenzoyl]-3-hydroxy-N-[2-(methyl-amino)ethyl]piperidine-4-carboxamide; 2,2,2-trifluoroacetic acid] | – | 0.91 µM |
